Experimental data from PMC4948010 (ACS Medicinal Chemistry Letters, 2016).
One block for each compound: values may come before it.

Key:
[1] = Intrinsic clearance in rat liver microsomes; type: in vitro ADME
ob/ob mice = experiment: Oral glucose tolerance test in ob/ob mice; type: in vivo, mouse; settings: doses 3, 10 and 30 mg/kg oral
human recombinant GK = target: T1, human recombinant GK (Homo sapiens, UniProt P35557); experiment: Glucokinase EC50 assay; type: biochemical; settings: compared with the other acyclic C5 analogues of Table 1
T1 sequence (P35557 1-465): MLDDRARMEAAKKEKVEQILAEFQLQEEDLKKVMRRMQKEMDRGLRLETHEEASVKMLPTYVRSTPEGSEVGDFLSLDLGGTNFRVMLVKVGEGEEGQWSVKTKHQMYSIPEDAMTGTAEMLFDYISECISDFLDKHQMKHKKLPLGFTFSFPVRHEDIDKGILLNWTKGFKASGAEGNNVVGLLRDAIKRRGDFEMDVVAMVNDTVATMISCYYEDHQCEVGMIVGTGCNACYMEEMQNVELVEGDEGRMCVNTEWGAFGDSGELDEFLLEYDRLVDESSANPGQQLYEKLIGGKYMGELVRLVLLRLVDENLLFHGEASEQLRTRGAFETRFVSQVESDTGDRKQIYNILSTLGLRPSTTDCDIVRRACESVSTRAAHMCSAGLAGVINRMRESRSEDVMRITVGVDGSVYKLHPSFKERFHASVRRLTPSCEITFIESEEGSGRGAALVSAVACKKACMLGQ

male Sprague–Dawley rats = experiment: Fed blood glucose test in male Sprague-Dawley rats; type: in vivo, rat; settings: doses 3, 10, 30 and 100 mg/kg oral
[2] = Metabolic identification studies; type: in vitro ADME

microsomal CLint [1]: 24 µL/min/mg
SMILES: CNC(=O)Nc1cc(Oc2cncc(C)c2)c([C@H]2C[C@@H](O)C2)cn1 [Compound 7]
blood glucose levels during an oral glucose tolerance test (ob/ob mice): dose-proportional decrease

loss in potency (human recombinant GK): approximately 5 fold
SMILES: CNC(=O)Nc1cc(Oc2cncc(C)c2)c(C(C)CO)cn1 (centres unmarked) [Compound 5]

site of oxidation (metabolic identification) [2]: THP ring as one site of oxidation
SMILES: CNC(=O)Nc1cc(Oc2cncc(OC)c2)c([C@H]2CCCOC2)cn1 [Compound 21]
blood glucose levels (male Sprague–Dawley rats): dose-proportional decrease
